According to US10710978B2, “STK4 inhibitors for treatment of hematologic malignancies” (Dana-Farber Cancer Institute, Inc., priority 2015, dated 2020):
Several values for one entry are separate records, joined by “and”; a condition that tells them apart may be missing. Equal entries are not always repeated. Where two headings read alike, the source gives them in different places.

Key:
[1] = system: ABL, ARG; experiment: KiNativ assay; type: binding; conditions: H929 live cell
Procedure: (§1) Biochemical IC50s of the compounds of the present disclosure against various kinases were measured in a KiNativ assay. Compounds were screened in duplicate at 10 μM in H929 live cell. IC50 was measured via Mass spectroscopy (MS).

[2] = target: MST1 (Homo sapiens (Human), UniProt Q13043); experiment: KiNativ assay; type: binding; conditions: H929 live cell
Procedure: as §1

[3] = target: MAP3K2 (Homo sapiens (Human), UniProt Q9Y2U5); experiment: KiNativ assay; type: binding; conditions: H929 live cell
Procedure: as §1

[4] = target: NEK3 (Homo sapiens (Human), UniProt P51956); experiment: KiNativ assay; type: binding; conditions: H929 live cell
Procedure: as §1

[5] = target: NEK1 (Homo sapiens (Human), UniProt Q96PY6); experiment: KiNativ assay; type: binding; conditions: H929 live cell
Procedure: as §1

[6] = target: AKT1 (Homo sapiens (Human), UniProt P31749); experiment: KiNativ assay; type: binding; conditions: H929 live cell
Procedure: as §1

[7] = target: LATS1 (Homo sapiens (Human), UniProt O95835); experiment: KiNativ assay; type: binding; conditions: H929 live cell
Procedure: as §1

[8] = system: AMPKa1, AMPKa2; experiment: KiNativ assay; type: binding; conditions: H929 live cell
Procedure: as §1

[9] = target: NEK8 (Homo sapiens (Human), UniProt Q86SG6); experiment: KiNativ assay; type: binding; conditions: H929 live cell
Procedure: as §1

[10] = system: MAPKAPK2, MAPKAPK3; experiment: KiNativ assay; type: binding; conditions: H929 live cell
Procedure: as §1

[11] = target: LYN (Homo sapiens (Human), UniProt P07948); experiment: KiNativ assay; type: binding; conditions: H929 live cell
Procedure: as §1

[12] = system: CaMK2a, CaMK2b, CaMK2d, CaMK2g; experiment: KiNativ assay; type: binding; conditions: H929 live cell
Procedure: as §1

[13] = target: CSK (Homo sapiens (Human), UniProt P41240); experiment: KiNativ assay; type: binding; conditions: H929 live cell
Procedure: as §1

[14] = target: TBK1 (Homo sapiens (Human), UniProt Q9UHD2); experiment: KiNativ assay; type: binding; conditions: H929 live cell
Procedure: as §1

[15] = target: AurA (Homo sapiens (Human), UniProt O14965); experiment: KiNativ assay; type: binding; conditions: H929 live cell
Procedure: as §1

[16] = target: IKKa (Homo sapiens (Human), UniProt O15111); experiment: KiNativ assay; type: binding; conditions: H929 live cell
Procedure: as §1

[17] = target: CaMK1d (Homo sapiens (Human), UniProt Q8IU85); experiment: KiNativ assay; type: binding; conditions: H929 live cell
Procedure: as §1

[18] = target: PFTAIRE1 (Homo sapiens (Human), UniProt O94921); experiment: KiNativ assay; type: binding; conditions: H929 live cell
Procedure: as §1

[19] = target: MST3 (Homo sapiens (Human), UniProt Q9Y6E0); experiment: KiNativ assay; type: binding; conditions: H929 live cell
Procedure: as §1

[20] = target: NDR2 (Homo sapiens (Human), UniProt Q9Y2H1); experiment: KiNativ assay; type: binding; conditions: H929 live cell
Procedure: as §1

[21] = target: MAST3 (Homo sapiens (Human), UniProt O60307); experiment: KiNativ assay; type: binding; conditions: H929 live cell
Procedure: as §1

[22] = target: STLK6 (Homo sapiens (Human), UniProt Q9C0K7); experiment: KiNativ assay; type: binding; conditions: H929 live cell
Procedure: as §1

[23] = target: PIK3CB (Homo sapiens (Human), UniProt P42338); experiment: KiNativ assay; type: binding; conditions: H929 live cell
Procedure: as §1

[24] = target: TAO2 (Homo sapiens (Human), UniProt Q9UL54); experiment: KiNativ assay; type: binding; conditions: H929 live cell
Procedure: as §1

[25] = target: IRE1 (Homo sapiens (Human), UniProt O75460); experiment: KiNativ assay; type: binding; conditions: H929 live cell
Procedure: as §1

[26] = target: Erk2 (Homo sapiens (Human), UniProt P28482); experiment: KiNativ assay; type: binding; conditions: H929 live cell
Procedure: as §1

[27] = system: MAP2K1, MAP2K2; experiment: KiNativ assay; type: binding; conditions: 10 μM, H929 live cell
Procedure: as §1

[28] = target: STK24 (MST3) (Homo sapiens (Human), UniProt Q9Y6E0); experiment: Z-lyte biochemical IC50 assay (Invitrogen); conditions: ATP concentration matched the Km
How it was run: (§2)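 FRET-based Z-lyte kinase assays run at Invitrogen, ATP at each kinase's Km; for STK4, 6.25-160 ng enzyme with 2 μM Ser/Thr 07 peptide in HEPES pH 7.5, MgCl2, EGTA, Brij-35, 1 h reaction then development reagent. 10-point 3-fold titration from 10 μM.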

[29] = target: STK4 (MST1) (Homo sapiens (Human), UniProt Q13043); experiment: Z-lyte biochemical IC50 assay (Invitrogen); conditions: ATP concentration matched the Km
How it was run: as §2

Sequence of AurA (O14965 whole entry): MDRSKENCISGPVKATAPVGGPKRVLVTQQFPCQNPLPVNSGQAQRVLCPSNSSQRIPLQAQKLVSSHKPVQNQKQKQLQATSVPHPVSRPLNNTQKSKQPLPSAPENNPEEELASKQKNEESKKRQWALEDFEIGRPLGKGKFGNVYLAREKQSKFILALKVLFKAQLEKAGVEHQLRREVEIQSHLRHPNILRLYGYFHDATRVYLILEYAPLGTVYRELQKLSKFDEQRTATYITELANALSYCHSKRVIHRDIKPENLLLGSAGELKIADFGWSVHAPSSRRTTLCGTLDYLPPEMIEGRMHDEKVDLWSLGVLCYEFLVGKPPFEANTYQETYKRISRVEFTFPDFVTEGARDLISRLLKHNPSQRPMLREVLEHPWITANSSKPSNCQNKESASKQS
Sequence of MAST3 (O60307 whole entry): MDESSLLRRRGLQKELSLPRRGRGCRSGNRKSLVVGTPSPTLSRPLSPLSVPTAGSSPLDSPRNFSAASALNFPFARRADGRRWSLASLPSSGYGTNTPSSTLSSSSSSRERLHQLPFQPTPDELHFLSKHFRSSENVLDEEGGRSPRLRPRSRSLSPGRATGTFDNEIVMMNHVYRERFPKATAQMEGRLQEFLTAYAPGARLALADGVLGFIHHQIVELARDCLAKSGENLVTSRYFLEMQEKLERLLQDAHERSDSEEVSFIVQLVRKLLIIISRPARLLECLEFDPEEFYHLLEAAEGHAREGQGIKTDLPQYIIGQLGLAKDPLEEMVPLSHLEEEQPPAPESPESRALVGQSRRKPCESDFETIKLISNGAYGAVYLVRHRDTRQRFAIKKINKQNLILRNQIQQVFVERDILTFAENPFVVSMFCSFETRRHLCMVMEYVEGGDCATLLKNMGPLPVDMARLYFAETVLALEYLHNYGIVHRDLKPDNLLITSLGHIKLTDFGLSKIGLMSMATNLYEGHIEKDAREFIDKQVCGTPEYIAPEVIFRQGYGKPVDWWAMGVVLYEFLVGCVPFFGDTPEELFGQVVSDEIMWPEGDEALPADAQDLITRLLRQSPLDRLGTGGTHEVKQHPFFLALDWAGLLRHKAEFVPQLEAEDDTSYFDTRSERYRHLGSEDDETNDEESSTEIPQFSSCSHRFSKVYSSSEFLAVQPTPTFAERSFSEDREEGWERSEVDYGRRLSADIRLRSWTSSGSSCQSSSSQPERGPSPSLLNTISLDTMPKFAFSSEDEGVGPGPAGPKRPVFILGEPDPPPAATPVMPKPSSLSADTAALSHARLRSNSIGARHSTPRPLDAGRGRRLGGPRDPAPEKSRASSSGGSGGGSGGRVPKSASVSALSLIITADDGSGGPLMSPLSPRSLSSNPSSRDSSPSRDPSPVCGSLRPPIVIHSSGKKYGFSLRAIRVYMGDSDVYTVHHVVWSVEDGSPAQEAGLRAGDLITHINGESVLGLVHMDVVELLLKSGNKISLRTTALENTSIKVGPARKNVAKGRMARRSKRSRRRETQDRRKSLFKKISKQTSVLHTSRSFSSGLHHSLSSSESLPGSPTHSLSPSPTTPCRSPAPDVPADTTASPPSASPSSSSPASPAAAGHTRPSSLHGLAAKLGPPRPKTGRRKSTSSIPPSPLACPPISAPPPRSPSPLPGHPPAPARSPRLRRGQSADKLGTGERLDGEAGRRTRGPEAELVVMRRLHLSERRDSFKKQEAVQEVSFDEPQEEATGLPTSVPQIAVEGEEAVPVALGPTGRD
Sequence of IRE1 (O75460 19-977): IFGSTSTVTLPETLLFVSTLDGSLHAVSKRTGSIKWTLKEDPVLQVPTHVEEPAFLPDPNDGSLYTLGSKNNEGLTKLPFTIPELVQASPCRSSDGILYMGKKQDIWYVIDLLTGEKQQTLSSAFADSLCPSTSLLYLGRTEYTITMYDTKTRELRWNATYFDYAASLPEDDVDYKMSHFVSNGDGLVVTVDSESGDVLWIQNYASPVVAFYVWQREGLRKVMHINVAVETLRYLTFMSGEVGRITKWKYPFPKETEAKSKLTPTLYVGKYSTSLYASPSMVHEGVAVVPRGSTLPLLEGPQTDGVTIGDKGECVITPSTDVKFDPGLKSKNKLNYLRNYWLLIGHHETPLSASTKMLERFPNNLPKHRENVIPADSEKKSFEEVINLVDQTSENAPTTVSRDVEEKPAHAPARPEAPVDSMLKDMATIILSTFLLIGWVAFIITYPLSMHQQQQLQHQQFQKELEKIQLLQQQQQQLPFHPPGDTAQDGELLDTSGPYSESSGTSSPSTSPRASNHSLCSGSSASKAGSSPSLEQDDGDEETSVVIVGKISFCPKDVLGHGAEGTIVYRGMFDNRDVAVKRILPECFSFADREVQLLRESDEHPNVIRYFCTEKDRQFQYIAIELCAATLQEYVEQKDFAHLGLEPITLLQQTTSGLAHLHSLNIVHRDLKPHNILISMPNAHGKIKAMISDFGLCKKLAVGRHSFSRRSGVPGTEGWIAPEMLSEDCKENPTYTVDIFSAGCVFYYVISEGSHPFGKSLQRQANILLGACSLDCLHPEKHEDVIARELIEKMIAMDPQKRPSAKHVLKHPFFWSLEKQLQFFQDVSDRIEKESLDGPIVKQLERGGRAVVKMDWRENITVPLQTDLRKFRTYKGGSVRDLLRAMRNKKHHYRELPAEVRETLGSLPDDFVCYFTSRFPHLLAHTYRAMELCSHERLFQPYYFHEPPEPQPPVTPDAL
Sequence of AKT1 (P31749 whole entry): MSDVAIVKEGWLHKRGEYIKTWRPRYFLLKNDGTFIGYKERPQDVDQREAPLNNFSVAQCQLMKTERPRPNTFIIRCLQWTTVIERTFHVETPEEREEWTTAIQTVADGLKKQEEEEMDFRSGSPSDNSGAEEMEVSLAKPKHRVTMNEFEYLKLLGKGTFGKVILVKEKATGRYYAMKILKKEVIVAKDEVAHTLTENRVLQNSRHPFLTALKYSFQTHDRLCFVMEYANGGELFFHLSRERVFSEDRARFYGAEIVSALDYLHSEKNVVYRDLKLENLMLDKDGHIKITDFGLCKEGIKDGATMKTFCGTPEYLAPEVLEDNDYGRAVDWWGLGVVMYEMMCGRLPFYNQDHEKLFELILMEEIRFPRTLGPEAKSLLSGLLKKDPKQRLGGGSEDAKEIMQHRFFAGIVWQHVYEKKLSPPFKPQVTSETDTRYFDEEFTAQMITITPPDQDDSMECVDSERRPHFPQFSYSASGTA
Sequence of TBK1 (Q9UHD2 whole entry): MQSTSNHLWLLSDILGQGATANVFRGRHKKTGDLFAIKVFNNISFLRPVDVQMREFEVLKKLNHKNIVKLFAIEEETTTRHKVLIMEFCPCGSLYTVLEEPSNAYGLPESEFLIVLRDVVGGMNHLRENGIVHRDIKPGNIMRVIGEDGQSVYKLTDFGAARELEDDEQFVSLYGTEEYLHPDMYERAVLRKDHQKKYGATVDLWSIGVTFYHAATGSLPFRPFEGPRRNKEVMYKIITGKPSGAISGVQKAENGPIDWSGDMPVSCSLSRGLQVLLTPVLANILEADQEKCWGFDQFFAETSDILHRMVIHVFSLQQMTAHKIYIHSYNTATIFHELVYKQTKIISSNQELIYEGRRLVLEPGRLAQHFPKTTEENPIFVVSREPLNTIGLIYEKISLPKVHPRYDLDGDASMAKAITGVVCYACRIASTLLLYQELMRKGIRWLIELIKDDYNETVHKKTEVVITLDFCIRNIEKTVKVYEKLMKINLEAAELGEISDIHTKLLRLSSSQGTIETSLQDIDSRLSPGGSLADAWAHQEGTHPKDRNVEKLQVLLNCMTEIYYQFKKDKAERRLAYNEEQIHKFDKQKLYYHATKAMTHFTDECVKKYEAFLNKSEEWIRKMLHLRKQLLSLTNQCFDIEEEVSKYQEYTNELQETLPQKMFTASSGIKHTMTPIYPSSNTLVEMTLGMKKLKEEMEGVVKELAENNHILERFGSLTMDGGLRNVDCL
Sequence of NEK3 (P51956 whole entry): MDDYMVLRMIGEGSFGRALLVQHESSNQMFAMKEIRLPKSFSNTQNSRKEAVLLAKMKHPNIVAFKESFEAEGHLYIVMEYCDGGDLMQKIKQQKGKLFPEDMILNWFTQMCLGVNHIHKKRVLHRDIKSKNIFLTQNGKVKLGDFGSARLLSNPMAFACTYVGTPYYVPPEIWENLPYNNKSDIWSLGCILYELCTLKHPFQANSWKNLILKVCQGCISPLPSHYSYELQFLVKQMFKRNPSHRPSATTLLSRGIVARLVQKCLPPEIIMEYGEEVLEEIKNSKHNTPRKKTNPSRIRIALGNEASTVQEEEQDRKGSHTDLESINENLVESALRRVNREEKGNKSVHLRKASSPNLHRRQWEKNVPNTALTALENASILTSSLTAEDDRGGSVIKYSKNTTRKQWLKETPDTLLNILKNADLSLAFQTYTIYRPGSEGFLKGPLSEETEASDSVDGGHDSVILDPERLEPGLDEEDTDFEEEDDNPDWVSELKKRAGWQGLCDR
Sequence of CaMK1d (Q8IU85 whole entry): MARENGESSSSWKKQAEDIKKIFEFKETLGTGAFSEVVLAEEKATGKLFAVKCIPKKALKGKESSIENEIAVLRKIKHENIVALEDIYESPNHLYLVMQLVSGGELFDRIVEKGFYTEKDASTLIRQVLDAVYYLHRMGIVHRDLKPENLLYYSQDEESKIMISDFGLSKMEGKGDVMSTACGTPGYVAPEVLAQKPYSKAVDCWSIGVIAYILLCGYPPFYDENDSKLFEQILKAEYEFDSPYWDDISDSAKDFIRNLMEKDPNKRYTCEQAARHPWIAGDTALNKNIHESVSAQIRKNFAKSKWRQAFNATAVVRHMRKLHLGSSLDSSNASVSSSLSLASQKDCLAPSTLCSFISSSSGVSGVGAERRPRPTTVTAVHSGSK

Nc1ncc(-c2cccc([N+](=O)[O-])c2F)cc1-c1ccc2c(c1)CCNC2=O [Compound I-9, 6-(2-amino-5-(2-fluoro-3-nitrophenyl)pyridin-3-yl)-3,4-dihydroisoquinolin-1(2H)-one]
% inhibition (range) ([1]; 10 μM): 75-90%
inhibition (10 μM) [1]: 75.7%
inhibition at 10 µM ([2]; read-out: % inhibition (range)): > 90%
inhibition at 10 µM ([2]; read-out: inhibition (10 μM)): 95.4%
inhibition at 10 µM ([3]; read-out: % inhibition (range)): 0%
inhibition at 10 µM ([3]; read-out: inhibition (10 μM)): 0.3%
inhibition at 10 µM ([4]; read-out: % inhibition (range)): 0%
inhibition at 10 µM ([4]; read-out: inhibition (10 μM)): -42.8%
inhibition at 10 µM ([5]; read-out: % inhibition (range)): 0%
inhibition at 10 µM ([5]; read-out: inhibition (10 μM)): -34%
inhibition at 10 µM ([6]; read-out: % inhibition (range)): 0%
inhibition at 10 µM ([6]; read-out: inhibition (10 μM)): 32.8%
inhibition at 10 µM ([7]; read-out: % inhibition (range)): 0%
inhibition at 10 µM ([7]; read-out: inhibition (10 μM)): 33.1%
% inhibition (range) ([8]; 10 μM): 50-75%
inhibition (10 μM) [8]: 52.0%
inhibition at 10 µM ([9]; read-out: % inhibition (range)): 0%
inhibition at 10 µM ([9]; read-out: inhibition (10 μM)): 11.6%
% inhibition (range) ([10]; 10 μM): 0.0%
inhibition (10 μM) [10]: 4.0%
inhibition at 10 µM ([11]; read-out: % inhibition (range)): 0%
inhibition at 10 µM ([11]; read-out: inhibition (10 μM)): -12.4%
% inhibition (range) ([12]; 10 μM): 0.0%
inhibition (10 μM) [12]: 3.3%
inhibition at 10 µM ([13]; read-out: % inhibition (range)): 0%
inhibition at 10 µM ([13]; read-out: inhibition (10 μM)): -4.5%
inhibition at 10 µM ([14]; read-out: % inhibition (range)): 0%
inhibition at 10 µM ([14]; read-out: inhibition (10 μM)): 23.7%
% inhibition (range) ([15]; 10 μM): 50-75% and 75-90%
inhibition (10 μM) [15]: 75.7%
inhibition at 10 µM ([15]; read-out: inhibition (10 μM)): 68.5%
inhibition at 10 µM ([16]; read-out: % inhibition (range)): 0%
inhibition at 10 µM ([16]; read-out: inhibition (10 μM)): -18.4%
inhibition at 10 µM ([17]; read-out: % inhibition (range)): 0%
inhibition at 10 µM ([17]; read-out: inhibition (10 μM)): -2.8%
inhibition at 10 µM ([18]; read-out: % inhibition (range)): 50 to 75%
inhibition at 10 µM ([18]; read-out: inhibition (10 μM)): 74.6%
inhibition at 10 µM ([19]; read-out: % inhibition (range)): 35 to 50%
inhibition at 10 µM ([19]; read-out: inhibition (10 μM)): 40.4%
inhibition at 10 µM ([20]; read-out: % inhibition (range)): 0%
inhibition at 10 µM ([20]; read-out: inhibition (10 μM)): -9.5%
inhibition at 10 µM ([21]; read-out: % inhibition (range)): 0%
inhibition at 10 µM ([21]; read-out: inhibition (10 μM)): 31.2%
inhibition at 10 µM ([22]; read-out: % inhibition (range)): 0%
inhibition at 10 µM ([22]; read-out: inhibition (10 μM)): -47.7%
inhibition at 10 µM ([23]; read-out: % inhibition (range)): 0%
inhibition at 10 µM ([23]; read-out: inhibition (10 μM)): 14.6%
inhibition at 10 µM ([24]; read-out: % inhibition (range)): 35 to 50%
inhibition at 10 µM ([24]; read-out: inhibition (10 μM)): 35.3%
inhibition at 10 µM ([25]; read-out: % inhibition (range)): 0%
inhibition at 10 µM ([25]; read-out: inhibition (10 μM)): -50.1%
inhibition at 10 µM ([26]; read-out: % inhibition (range)): 50 to 75%
inhibition at 10 µM ([26]; read-out: inhibition (10 μM)): 60.2%
% inhibition (range) [27]: 0.0%
IC50 [28]: > 900 nM
IC50 [29]: < 40 nM
